Experimental data taken from article PMC10780823, “Innovative Approach to Enhance Bioavailability of Birch Bark Extracts: Novel Method of Oleogel Development Contrasted with Other Dispersed Systems” (Plants, 2024).
“Also recorded” adds a separate entry of the source. One block for each molecule: values may come before it.

What was measured:
[1] = Oxidative stability (Oxipres, high-pressure oxygen bomb method); format: physicochemical; conditions: antioxidants 0.33%
Method: Due to their high oil content, oleogels are characterized by instability in an oxygen environment, so at the beginning of the study, an oxidative stability test of the oleogel was performed, which was compared with a pure sunflower oil sample and an oil sample containing TBHQ (tertiary butylhydroquinone).
To determine the oxidative stability, the oleogel was compared with a sunflower oil alone (blank sample) and a sample of sunflower oil with the addition of TBHQ (tertiary butylhydroquinone), which is widely used as an effective food antioxidant. TBHQ was added to the oil at a concentration equivalent to the concentration of polyphenols in the oleogel—0.33% (determined in previous studies).
An Oxipres ML 3,047,312 machine (Mikrolab Aarhus, Aarhus, Denmark) was used to determine oxidative stability. This equipment is a modification of the high-pressure oxygen bomb method (by standard ASTM D942), the principle of which is to oxidize substrates with oxygen. Enough sample was weighed into glass containers to contain 5 g of substrate. […] The protection factor (PF) is calculated according to the formula PF = […], where IPx is the induction period for the sample with antioxidant additives, hours; IPk is the induction period for the sample without antioxidant additives or the “blank sample”, hours. Using that formula, the oxidative stability was determined and compared among samples.

[2] = Pozharitskaya study: betulin in blood plasma after endotracheal administration; format: in vivo, rat; conditions: cross-study comparison
[3] = parameters: method as in PMID 27155877; conditions: endotracheal route; nanoparticles 25.2 mg/kg; cited from earlier work
[4] = Content of BBE compounds in rat tissues after repeated peroral oleogel administration; conditions: for Content in heart, liver, kidney, brain tissues: oleogel half dose daily 7 days, 24 h after last administration, level of quantification 50 ng/g
[5] = oral in olive oil, 200 mg/kg, mice; cited from earlier work
[6] = Betulin, lupeol and betulinic acid in rat blood plasma after peroral administration of BBE dispersed systems (LC/MS/MS)
[7] = male, Wistar, rat, in vivo
[8] = oleogel half dose daily for 7 days

Induction period ([1]; oxygen 8–8.5 bar, 120 °C): 3.5 h
Protection factor ([1]; vs blank sunflower oil): 2.7
SMILES: CC(C)(C)c1cc(O)ccc1O [TBHQ in oil, tertiary butylhydroquinone]

SMILES: C=C(C)[C@@H]1CC[C@]2(CO)CC[C@]3(C)[C@H](CC[C@@H]4[C@@]5(C)CC[C@H](O)C(C)(C)[C@@H]5CC[C@]43C)[C@@H]12 [betulin powder]
Plasma level, times higher than aqueous suspension of BBE powder in this study [2]: ~1000 times
Betulin in blood plasma [3]: 6.9 µg/mL

SMILES: C=C(C)[C@@H]1CC[C@]2(CO)CC[C@]3(C)[C@H](CC[C@@H]4[C@@]5(C)CC[C@H](O)C(C)(C)[C@@H]5CC[C@]43C)[C@@H]12 [betulin]
Content in heart, liver, kidney, brain tissues [4]: not detected; also recorded: not found

Content in heart, liver, kidney, brain tissues [4]: not detected; also recorded: not found
SMILES: C=C(C)[C@@H]1CC[C@]2(C(=O)O)CC[C@]3(C)[C@H](CC[C@@H]4[C@@]5(C)CC[C@H](O)C(C)(C)[C@@H]5CC[C@]43C)[C@@H]12 [betulinic acid]

SMILES: C=C(C)[C@@H]1CC[C@]2(C)CC[C@]3(C)[C@H](CC[C@@H]4[C@@]5(C)CC[C@H](O)C(C)(C)[C@@H]5CC[C@]43C)[C@@H]12 [lupeol]
Lupeol concentration in blood plasma [5]: 6 ng/µL
Lupeol content in brain [4, 8]: not found
Lupeol content in kidneys [4, 8]: about 250 ng/g tissue
Lupeol content in liver [4, 8]: about 21 ng/g tissue
Lupeol bioavailability from the oleogel, times better than betulin bioavailability ([6]; considering the lower dose of lupeol): 20 times
Lupeol exposure, times higher than betulin exposure ([6]; peroral BBE systems): about 3 times
Lupeol content in heart [7]: about 250 ng/g tissue
